Laboratory results as given in patent US20110021471A1, “REDUCING Abeta42 LEVELS AND Abeta AGGREGATION” (priority 2007, published 2011).
Where two headings read alike, the source gives them in different places.

How the values were obtained:
[1] = system: Human H4 neuroglioma cells expressing wild-type APP695 protein or CTF105; test: Cell-based screens for amyloid-β modulation (H4 cells, ELISA); settings: for EC50: Homo sapiens, cellular dose-response
Source text: Photoaffinity labelling. All experiments used the following general protocol. […] Cell-based screens for amyloid-β modulation. […] Statistical analysis.

[2] = biological target: T1, APP-CTF (Homo sapiens, UniProt P05067); test: Photoaffinity labelling of APP and APP CTF in H4 cell membrane fractions and competition; format: binding; settings: photoprobe 25 μM, competitor 200 μM
T1 construct: this protein was designated α-secretase-derived APP CTF (CTF83) on the basis of molecular weight; expressed in transfected cells
T1 sequence (P05067 688-770 limits assumed): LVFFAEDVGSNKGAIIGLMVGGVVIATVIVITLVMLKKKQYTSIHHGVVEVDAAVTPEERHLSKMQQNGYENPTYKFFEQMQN
Experimental: Photoaffinity labelling. All experiments used the following general protocol. Samples (recombinant or synthetic peptides, cell lysates and membrane preparations) were exposed in borosilicate test tubes to ultraviolet light (350 nm) in a Rayonet Photoreactor R100 (RPR-3500 lamps, Southern New England Ultra Violet Company) in a cold room (4° C.) for 30 minutes or as otherwise noted. Crosslinked samples were analyzed by ELISA for biotin incorporation, or analyzed directly by SDS-PAGE (Criterion-XT, Bio-Rad), or after precipitation with streptavidin ultralink plus beads (Pierce). After immunblotting, proteins were detected using chemiluminesence (ECL Plus, GEHealthcare) or near-infrared fluorescence (LiCor Odyssey). Full-length APP and APP CTFs (CTF83, CTF99) were detected with CT20, a rabbit polyclonal antibody against the C-terminus of APP. Biotin was detected with an affinity-purified rabbit polyclonal antibody (Bethyl). Cell-based screens for amyloid-β modulation.

[3] = biological target: Aβ(1-42) (Homo sapiens, UniProt P05067); test: Fluorescence titration and saturation binding of Aβ(1-42) with X-34
Sequence of Aβ(1-42) (P05067 672-713 limits assumed): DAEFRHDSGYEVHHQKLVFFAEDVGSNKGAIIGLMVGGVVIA
Experimental: Fluorescence titration and saturation binding of Aβ(1-42) with X-34. Incremental increases in fluorescence (ΔF) when Aβ(1-42) was included at the indicated total concentrations of X-34 were fitted to eq. 1.
(§1) Finally, X-34 was tested for its ability to modulate Aβ42 amounts in an APP transgenic mouse (Tg2576).

[4] = system: APP wild-type cells; test: Aβ modulation in APP wild-type cells; format: cell-based; settings: APP wild-type cells; read-out: EC50, lowering of Aβ42
Experimental: (§2) (A) and (B) The sequences of wildtype (WT; A) APP and the mutated substrate (B) containing the homologous region (italic, underlined) of the NOTCH transmembrane domain (TMD) in APP where GSMs are hypothesized to bind. […] Bottom row, FT-1 ([…]) raised Aβ42 200% in APP wild-type cells (A); however, in APP-NOTCH TMD cells (B), FT-1 caused minimal changes in the Aβ42 (95%) or Aβ40 (90%) signal. Data are presented as amyloid-β percentage of control±s.e.m., n=3.
FIG. 19. Substitution of human Notch sequence in the APP transmembrane domain (TMD) changes sensitivity to modulation. (A) Site-directed mutagenesis was used to exchange the analogous region of the human Notch TMD (bold and underlined) for a section (bold and underlined) of wild-type APP (APPwt) we have shown to be labeled by GSMs. The new substrate (APP-Notch TMD) is cleaved by γ-secretase primarily after valine and alanine residues corresponding to 40 and 42 in APPwt (arrows). […] The beginning (1) N-terminal amino acid (AA) to the ending C-terminal AA is shown above each peak, with the molecular weight (m/z) below. 1-40 and 1-42 are detected as the two major species in APP-Notch TMD conditioned media. It should be noted that the mutagenesis strategy to create APPNotch TMD led to a single AA deletion relative to APPwt. […] Both cell lines were treated (6 hours) with L-685,458 (10 μM), which is hypothesized to target the active site aspartate residues, media was collected, and analyzed for changes in Aβ levels. […]
To test the hypothesis that mutation of the GSM binding site in APP should alter sensitivity to GSMs, a portion of the GSM binding site in APP was exchanged with the analogous region of human NOTCH (FIGS. 18A and 18B; FIG. 19). […] Although the molecular weight and abundance of each chimeric peptide differed from amyloid-β peptides from APP, the main species produced from the APP-NOTCH TMD construct had identical C-termini to Ab1-40 and Ab1-42, and could be quantified by enzyme-linked immunosorbent assays (ELISAs; FIG. 19). […]

[5] = system: APP-NOTCH TMD cells; test: Aβ modulation in APP-NOTCH TMD cells; format: cell-based, human; settings: APP-NOTCH TMD line
Experimental: as §2
FIG. 19. Substitution of human Notch sequence in the APP transmembrane domain (TMD) changes sensitivity to modulation. (A) Site-directed mutagenesis was used to exchange the analogous region of the human Notch TMD (bold and underlined) for a section (bold and underlined) of wild-type APP (APPwt) we have shown to be labeled by GSMs. The new substrate (APP-Notch TMD) is cleaved by γ-secretase primarily after valine and alanine residues corresponding to 40 and 42 in APPwt (arrows). […] The beginning (1) N-terminal amino acid (AA) to the ending C-terminal AA is shown above each peak, with the molecular weight (m/z) below. 1-40 and 1-42 are detected as the two major species in APP-Notch TMD conditioned media. It should be noted that the mutagenesis strategy to create APPNotch TMD led to a single AA deletion relative to APPwt. The correct change in molecular weight caused by the introduced mutations were confirmed by the mass spectrum. For simplicity the peptides are referenced by their C-terminal residues relative to Aβ (40, 42, etc). Representative mass spectra are shown from multiple IP reactions (3) and duplicate spots. […] Both cell lines were treated (6 hours) with L-685,458 (10 μM), which is hypothesized to target the active site aspartate residues, media was collected, and analyzed for changes in Aβ levels. The 40 and 42 Aβ reactive species from both cell lines were inhibited by L-685,458 with equal sensitivity (no significant difference; 40 p>0.5; 42 p>0.4; t test; n=3).
To test the hypothesis that mutation of the GSM binding site in APP should alter sensitivity to GSMs, a portion of the GSM binding site in APP was exchanged with the analogous region of human NOTCH (FIGS. 18A and 18B; FIG. 19). The chimeric construct was used because the NOTCH transmembrane domain (TMD) appears resistant to GSM effects. The APP NOTCH TMD construct produced a spectrum of chimeric amyloid-β species in conditioned cell media (FIG. 19). Although the molecular weight and abundance of each chimeric peptide differed from amyloid-β peptides from APP, the main species produced from the APP-NOTCH TMD construct had identical C-termini to Ab1-40 and Ab1-42, and could be quantified by enzyme-linked immunosorbent assays (ELISAs; FIG. 19). The relative sensitivity to GSMs of APP-NOTCH TMD versus APP was assayed in stably transfected cells. […]

[6] = biological target: γ-secretase (Homo sapiens, UniProt P49768); test: GSM activity of compounds that bind Aβ or Aβ amyloid (cell-based or cell-free γ-secretase assays, FIG. 12); settings: two doses (10 and 100 μM)
Experimental: A literature search was performed to identify compounds reported to bind to the Aβ peptide directly or amyloid. These candidates were initially tested in cell-based assays or cell-free in vitro γ-secretase assays at two doses (10 and 100 μM).
as §1

For `O=C(O)c1cc(C=Cc2ccc(C=Cc3ccc(O)c(C(=O)O)c3)cc2)ccc1O` [X-34, 1,4-bis(3-carboxy-4-hydroxyphenylethenyl)-benzene], the “total amyloid-β amounts” value [1] was “did not decrease”, the Aβ42 levels ([1]; H4 cells expressing APP) was “decrease” and the EC50 ([1]; read-out: EC50, lowering of Aβ40) was 60.7 µM. For the same compound, the EC50 ([1]; read-out: EC50, lowering of Aβ42) was 13.7 µM, the “competition of APP-CTF labeling by Fen-B and Flurbi-BpB” value [2] was “decreases labeling of APP-CTF” and the Kd [3] was 12.1 ± 4.7 µM. The EC50 [4] was 5.9 µM, the “Aβ40 or Aβ42 concentrations” value [5] was “did not change either Aβ40 or Aβ42 concentrations” and the GSM activity [6] was “Aβ42-lowering”.
